As a reminder, the IC50 is the point on the concentration scale where inhibition reaches its midpoint. Higher therefore signals a need for much substance.

For the first assay, the target named is T1, Atypical chemokine receptor 3 (Homo sapiens, UniProt P25106). Description: Binding affinity to CXCR7 (unknown origin).
T1 sequence (P25106 whole entry): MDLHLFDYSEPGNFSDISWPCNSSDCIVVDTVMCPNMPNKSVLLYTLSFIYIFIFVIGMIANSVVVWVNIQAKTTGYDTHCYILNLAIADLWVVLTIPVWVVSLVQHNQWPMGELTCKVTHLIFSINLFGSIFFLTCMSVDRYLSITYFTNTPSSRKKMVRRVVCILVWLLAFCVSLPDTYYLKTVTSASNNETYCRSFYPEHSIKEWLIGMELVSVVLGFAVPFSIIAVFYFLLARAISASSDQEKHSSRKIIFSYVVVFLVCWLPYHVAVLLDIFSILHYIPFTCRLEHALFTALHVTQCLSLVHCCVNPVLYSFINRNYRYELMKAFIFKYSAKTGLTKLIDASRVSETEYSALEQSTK
As for `COc1c(C)cc2cccnc2c1N1CCCN(C(C(=O)N2CCNCC2)c2csc(C(C)C)n2)CC1` (stereo not given), the half-maximal inhibitory concentration (IC50) was less than 0.1 µM.

The compound `CCc1ccc(NC(=O)CSc2nc3ccccc3c(=O)n2CCCC(=O)NCN2CCOCC2)cc1` showed an IC50 of 4.74 µM.

With `O=C(c1cc2c(s1)-c1ccc(Cl)cc1SC2)N1CCC(N2CCCCC2)CC1`, the IC50 came to 6.33 µM.

`COc1ccc2c(c1)c1c(cnn1CC(=O)NCCN(C)C1CCCCC1)c(=O)n2C` displayed an IC50 of less than 1 µM.

Another assay addresses T1, Atypical chemokine receptor 3. Description: Displacement of [125I]SDF-1alpha from CXCR7 (unknown origin) expressed in CHO cells after 1 hr by TopCount scintillation counting analysis. In kind it is cell-based. Background: Loss of bound radioactivity is the signal in a displacement assay; it reports binding, not function.
`CN(C)c1ccc(/C=C2\SC(N3CCN(CCO)CC3)=NC2=O)cc1`: the IC50 came out at 5.36 µM.

For `CN(Cc1ccccc1NC(=O)/C=C/c1cnn(-c2ccccc2)c1)C1CCCCC1`, the IC50 came to 5.84 µM.

The compound `Cc1ccc2c(c1)-c1onc(C(=O)NCCN3CCCCC3C)c1CO2` (stereo not given) displayed an IC50 of 2.64 µM.

The compound `O=C(c1ccc(N2CCc3ccccc32)s1)N1CCC(N2CCCCC2)CC1` had an IC50 of 3.2 µM.

In the case of `CCC(C(=O)NCCCN(CC)Cc1ccccc1)n1nc(C)c2sc3ccccc3c2c1=O` (stereo not given), the IC50 was determined as 2.78 µM.

In turn, `CCCCN(CC)CCNC(=O)c1ccc(N2CCc3ccccc32)s1` came in with an IC50 of 3.89 µM.

Compound `Cc1ccc2c(c1)-c1onc(C(=O)NCCCN3CC(C)CC(C)C3)c1CO2` (stereo not given) registered an IC50 of 2.92 µM.

Consider `CN(CCCNC(=O)c1cc2c(=O)n(C)c3ccccc3c2s1)Cc1ccccc1`, for which the half-maximal inhibitory concentration (IC50) came out at 2.21 µM.

On to `CC1CCCCN1CC(O)COc1ccc2c3c(c(=O)oc2c1)CCC3` (stereo not given), for which the IC50 turned out to be 8.02 µM.

Consider `O=C(NCCCN(Cc1ccco1)C1CCCC1)c1cc2c(s1)-c1ccccc1SC2`, for which the IC50 worked out at 11.4 µM.

With `Cc1ccc(C(=O)Nc2ncc(CN3CCC(c4ccccc4)C3)s2)cc1` (stereo not given), the IC50 stood at 4.35 µM.

In turn, `CCOc1cc(NC(=S)NCCCN(C)C)c(OCC)cc1NC(=O)c1ccc(C)cc1` returned a concentration for half-maximal inhibition (IC50) of 9.79 µM.

`CC1CCCN(CC(O)COc2ccc3c4c(c(=O)oc3c2)CCC4)C1` (stereo not given) yielded an IC50 of 1.29 µM.

In turn, `COc1ccccc1C(CNC(=O)c1cc(-c2ccc(Br)cc2)on1)N1CCC(C)CC1` (stereo not given) gave an IC50 of 1.87 µM.

In turn, `CCN1CCCC1CNC(=O)c1ccc(-n2ccc3ccccc32)s1` (stereo not given) yielded an IC50 of 6.75 µM.

As to `Cc1cc(OCC(=O)NC2CCN(Cc3ccccc3)CC2)c2c(C)cc(=O)oc2c1`, the IC50 came to 1.49 µM.

`CCN1CCCC1CNC(=O)CN1C(=O)/C(=C/c2ccccc2F)Sc2ccccc21` (stereo not given) displayed an IC50 of 6.19 µM.

In the case of `CCC1CCCCN1CCCNC(=O)CSc1cc(=O)n(C)c2ccc(Cl)cc12` (stereo not given), the IC50 was 2.16 µM.

As to `CC1CCCCN1CCNC(=O)c1cc2c(s1)-c1ccc(Cl)cc1SC2` (stereo not given), the IC50 is 5.27 µM.

Regarding `CCN1CCc2nc3sc(C(=O)N4CCc5ccccc5C4)c(N)c3cc2C1`, the IC50 came to 10 µM.

The compound `Cc1ccc2[nH]c(=O)c3cc(C(=O)NCCN4CCCCCC4)sc3c2c1` displayed an IC50 of 7 µM.

(Values after ChEMBL document CHEMBL2380252, “Optimized method of G-protein-coupled receptor homology modeling: its application to the discovery of novel CXCR7 ligands” (J Med Chem, 2013).)
